In ChEMBL document CHEMBL1124140, “Oxidants, oxidant drugs, and malaria” (J Med Chem, 1988) one finds IC50 and EC50 data, which are given here for five compounds.

The subject of assay [1] is Plasmodium falciparum. Nature of the assay: Inhibitory activity against chloroquine-resistant Plasmodium falciparum. The format is functional, organism-based.
Assay [2] concerns Plasmodium falciparum. Nature of the assay: (§1) Inhibitory activity against Chloroquine-sensitive Plasmodium falciparum. The format is functional, organism-based.
In assay [3] the test system is Plasmodium falciparum. Described as §1. The format is functional. Conditions: read-out: ED50 (the source's name).
For assay [4], the system named is Plasmodium falciparum. Nature of the assay: Inhibitory activity against Chloroquine-resistant Plasmodium falciparum. It counts as functional. Conditions: read-out: ED50 (the source's name).
Assay [5] deals with Plasmodium falciparum. In words: (§2) In vitro inhibition against Plasmodium falciparum. It counts as functional, organism-based.
The subject of assay [6] is Plasmodium falciparum. In words: In vitro inhibition against Plasmodium falciparum; […]. The format is functional, organism-based.
Assay [7] relates to Plasmodium falciparum. The description is as §2. It counts as functional. The following applies: read-out: ED50 (the source's name).

Regarding `CC(C)(C)OC(=O)OC1CCC2C[C@@H]3C=CC2(OO3)C1(C)C` (some centres not stated), the IC50 in the assay on Plasmodium falciparum [1] is 0.33 µM; with Plasmodium falciparum [2] it was 0.19 µM.

Take `CC(C)C12CCC(C)(CC1)OO2`: the EC50 is 0.08 µM in the assay with Plasmodium falciparum [3] and 0.21 µM in the assay on Plasmodium falciparum [4].

As to `CC(C)(C)COO`, the IC50 in the assay on Plasmodium falciparum [5] is 41 µM.

`C[C@@H]1CC[C@H]2[C@@H](C)C(=O)O[C@@H]3O[C@@]4(C)CC[C@@H]1[C@]32OO4` [ARTEMISININ] yielded an IC50 in the assay with Plasmodium falciparum [6] of 0.004 µM.

On to `CC1=C2[C@H]3OC(=O)[C@@H](C)[C@@H]3CC[C@@]2(C)C=CC1=O` [SANTONIN], for which the EC50 in the assay on Plasmodium falciparum [7] was found to be 2.8 µM.
